In brackets after ≈: the same amount, converted by molar mass.
Assays:
A549 cells = assay: MTT cell viability assay, A549 lung cancer cells; type: cell-based; settings: Homo sapiens, 24 h
Procedure: (§1) Human U373 glioma, MCF7 breast cancer, A549 lung cancer and PC-3 prostate cancer cells were grown in Dulbecco’s Modified Eagle Medium (DMEM), supplemented with 10% foetal bovine serum, 2 mM glutamine, 100 U/mL penicillin/streptomycin, at 37 °C in a humidified atmosphere containing 5% CO2 (logarithmic growth phase, routine passages every 3 days). The human breast epithelial cell line MCF10 was cultured in DMEM/F12 Ham’s Mixture supplemented with 5% horse serum, epithelial growth factor 20 ng/mL, insulin 10 μg/mL, hydrocortisone 0.5 mg/mL, cholera toxin 100 ng/mL, and 100 U/mL penicillin/streptomycin. […]
(§2) U373, MCF7, A549, PC-3, HUVEC, and MCF10 cell viability was determined by MTT assay using published protocols. MTT absorbance was quantified spectrophotometrically using a Glomax Multi Detection System microplate reader (Promega, Milano, Italy).
(§3) Statistical significance of raw data between the groups in each experiment was evaluated using unpaired Student’s t-test (single comparisons) or one-way ANOVA followed by the Newman-Keuls post-test (multiple comparisons). The IC50 and Emax concentration were determined by non-linear regression curve analysis of the concentration-effect responses. […] The results were expressed as means ± standard error of mean (SEM) of the indicated n values.

XIAP = XIAP expression by real-time PCR and western blot in MCF7 cells; type: cell-based, human; settings: MCF7, increasing times, gibbilimbol B/eriopodol A 30 μg/mL, erioquinol 10 µg/mL; for XIAP mRNA levels: real-time PCR; for XIAP protein levels: western blot
Excerpt: (§4) Using published protocols, MCF7 and MCF10 cells were homogenised in RIPA lysis buffer, supplemented with a cocktail of protease inhibitors (cOmplete; Roche Diagnostics, Milano, Italy). Equal amounts of proteins were separated by 4–20% SDS-polyacrylamide gel electrophoresis (Criterion TGX Stain-free precast gels and Criterion Cell system; Bio-Rad, Hercules, CA, USA) and transferred onto nitrocellulose membrane using a Bio-Rad Trans-Blot Turbo System. When indicated, the membranes were probed using the rabbit monoclonal anti-cleaved caspase 7 and anti-XIAP (Cell Signaling Technology) primary antibodies. After the incubation with the appropriate horseradish-peroxidase-conjugated secondary antibody (Cell Signaling Technology), bands were visualised using the Clarity Western ECL substrate with a ChemiDoc MP imaging system (Bio-Rad). To monitor for potential artefacts in loading and transfer among samples in different lanes, the blots were routinely treated with the Restore Western Blot Stripping Buffer (ThermoFisher Scientific) and re-probed with the goat anti-Lactate dehydrogenase (LDH)-A (Santa Cruz Biotechnology) and the mouse anti-vinculin primary antibodies. The stain-free gel was used as loading control as well. When appropriated, bands were quantified for densitometry using the Bio-Rad Image Lab software.
The analysis of mRNA expression was performed as previously described. Briefly, total RNA from MCF7 cells was extracted with the High Pure RNA Isolation Kit (Roche Applied Science, Mannheim, Germany), according to the manufacturer’s protocol. First-strand cDNA was generated from 1 μg of total RNA using iScript Reverse Transcription Supermix (Bio-Rad). Primer pairs (Eurofins Genomics, Milano, Italy) for XIAP (NM_001167; forward ACCGTGCGGTGCTTTAGTT, reverse […]) and β-actin (NM_001101; forward […], reverse CACCTTCTACAAT GAGCTGCGTGTG) were designed to hybridise to unique regions of the appropriate gene sequence. PCR was performed using SsoAdvanced Universal SYBR Green Supermix and the CFX96 Touch Real-Time PCR Detection System (Bio-Rad). The fold change was determined relative to the selected control sample after normalising to β-actin (internal standard) by the formula 2^−ΔΔCT.

PC-3 cells = assay: MTT cell viability assay, PC-3 prostate cancer cells; type: cell-based; settings: Homo sapiens, 24 h
Procedure: as §1, §2, §3

caspase 7 [1] = assay: Cleaved-caspase 7 western blot in MCF10 cells; type: cell-based, human; settings: MCF10, 6 h; gibbilimbol B/eriopodol A 30 µg/mL, erioquinol 10 µg/mL
Excerpt: as §4
Figure S6. Western blot. […]

caspase 7 [2] = assay: Cleaved-caspase 7 immunofluorescence in U373 cells; type: cell-based, human; settings: U373, 6 h; gibbilimbol B/eriopodol A 30 µg/mL, erioquinol 10 µg/mL
Procedure: Using published protocols, MCF7 or U373 cells cultured in 120-mm coverslips were fixed in 4% paraformaldehyde in 0.1 M PB, pH 7.4, for 10 min. Cells were pre-incubated for 1 h min with 5% of normal goat serum (Life Technologies, Monza, Italy) in 0.1 M PB (pH 7.4) containing 0.1% Triton X-100, before overnight incubation with the rabbit monoclonal anti-cleaved caspase 7 (Cell Signaling Technology, Danvers, MA, USA). In double-label immunofluorescence experiments, the mouse monoclonal anti-cytochrome c primary antibody (Cell Signaling Technology) was used in conjunction with the rabbit monoclonal primary antibody directed to COX IV (Cell Signaling Technology). For fluorescence detection, coverslips were stained with the appropriate Alexa Fluor secondary antibodies (Life Technologies) and mounted on glass slides in a ProLong Gold Antifade Mountant (Life Technologies). DAPI and/or fluorescein phalloidin (cytoskeleton detection) staining was also used. Cells were analysed with a DMI4000 B automated inverted microscope equipped with a DCF310 digital camera (Leica Microsystems, Wetzlar, Germany). When indicated, confocal imaging was performed with a TCS SP8 System (Leica Microsystems). Image acquisitions were controlled by the Leica Application Suite X.

Row | Compound | IC50 (A549 cells) | XIAP mRNA levels (XIAP) | XIAP protein levels (XIAP) | IC50 (PC-3 cells) | activation of caspase 7 (caspase 7 [1]) | activation of caspase 7 (caspase 7 [2])
1 | CCCCCC/C=C\CCC1(O)C=CC(=O)C=C1 [Erioquinol, (Z)-4-(dec-3′-enyl)-4-hydroxycyclohexa-2,5-dien-1-one] | 2.65 µg/mL (≈ 10.7 µM) | did not significantly modify | did not significantly modify | 2.21 µg/mL (≈ 8.9 µM) | – | –
2 | CCCCCC/C=C/CCc1ccc(O)cc1 [Gibbilimbol B, (E)-4-(dec-3′-enyl)phenol] | – | did not significantly modify | did not significantly modify | – | activation of caspase 7 | activation of caspase 7

— PMC6770071, “XIAP as a Target of New Small Organic Natural Molecules Inducing Human Cancer Cell Death” (Cancers, 2019)
